Source: ChEMBL document CHEMBL4368904 (J Med Chem, 2019)
pEC50, pIC50: −log10 of the molar value. Active and inactive are the calls of the source. The rule behind the calls is not given here.

Columns and labels:
[1] = Half life in Sprague-Dawley rat at 1 to 10 mg/kg, po; assay type: ADME, organism-based; settings: in vivo
Adenosine receptor A1 [2] = molecular target: T1, Adenosine receptor A1 (Homo sapiens, UniProt P30542); assay: Agonist activity at human A1A adenosine receptor expressed in HEK cells assessed as inhibition of forskolin-stimulated cAMP production after 60 mins; assay type: functional, cell-based
T1 sequence (P30542 whole entry): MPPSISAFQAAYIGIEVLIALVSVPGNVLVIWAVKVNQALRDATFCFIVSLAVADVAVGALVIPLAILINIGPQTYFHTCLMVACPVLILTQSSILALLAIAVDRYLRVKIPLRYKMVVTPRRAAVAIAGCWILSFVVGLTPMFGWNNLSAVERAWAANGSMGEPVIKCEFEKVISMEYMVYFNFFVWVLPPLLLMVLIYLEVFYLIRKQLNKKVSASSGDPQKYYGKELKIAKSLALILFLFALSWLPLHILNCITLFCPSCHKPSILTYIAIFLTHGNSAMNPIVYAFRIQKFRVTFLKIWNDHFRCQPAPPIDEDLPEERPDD

[3] = molecular target: Voltage-gated inwardly rectifying potassium channel KCNH2 (Homo sapiens, UniProt Q12809); assay: Inhibition of human ERG by fluorescence polarization assay
Sequence of Voltage-gated inwardly rectifying potassium channel KCNH2 (Q12809 whole entry): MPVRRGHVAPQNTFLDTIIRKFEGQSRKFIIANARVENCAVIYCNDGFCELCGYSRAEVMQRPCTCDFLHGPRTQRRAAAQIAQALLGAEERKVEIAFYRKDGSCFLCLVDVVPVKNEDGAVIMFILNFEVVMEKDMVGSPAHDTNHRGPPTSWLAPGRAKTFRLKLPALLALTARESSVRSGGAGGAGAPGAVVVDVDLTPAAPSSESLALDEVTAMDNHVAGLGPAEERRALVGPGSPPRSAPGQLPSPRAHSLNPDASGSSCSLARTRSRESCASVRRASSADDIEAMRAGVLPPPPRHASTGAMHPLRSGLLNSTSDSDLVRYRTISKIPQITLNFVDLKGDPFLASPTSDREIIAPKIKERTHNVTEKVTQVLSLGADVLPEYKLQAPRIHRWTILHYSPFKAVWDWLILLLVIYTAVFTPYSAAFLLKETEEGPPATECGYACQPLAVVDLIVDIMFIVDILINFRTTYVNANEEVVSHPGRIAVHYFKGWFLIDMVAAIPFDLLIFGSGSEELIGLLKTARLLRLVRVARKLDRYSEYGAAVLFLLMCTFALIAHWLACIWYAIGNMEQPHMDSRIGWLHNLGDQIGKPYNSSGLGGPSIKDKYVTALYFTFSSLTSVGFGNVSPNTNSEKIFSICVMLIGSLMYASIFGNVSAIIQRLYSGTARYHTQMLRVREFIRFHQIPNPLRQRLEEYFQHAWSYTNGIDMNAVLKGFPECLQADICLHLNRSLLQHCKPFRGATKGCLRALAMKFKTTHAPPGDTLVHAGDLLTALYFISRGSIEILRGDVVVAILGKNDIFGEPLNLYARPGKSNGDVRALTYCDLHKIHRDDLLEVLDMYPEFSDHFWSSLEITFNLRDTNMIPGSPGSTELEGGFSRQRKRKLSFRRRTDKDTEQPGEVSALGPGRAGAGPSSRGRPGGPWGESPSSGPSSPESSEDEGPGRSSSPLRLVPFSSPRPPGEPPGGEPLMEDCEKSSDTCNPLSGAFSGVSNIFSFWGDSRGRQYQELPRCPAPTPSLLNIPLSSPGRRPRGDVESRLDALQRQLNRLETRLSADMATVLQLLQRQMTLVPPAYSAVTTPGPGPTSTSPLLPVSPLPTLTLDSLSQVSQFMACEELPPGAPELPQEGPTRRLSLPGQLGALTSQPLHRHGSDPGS

[4] = Stability in mouse plasma; assay type: ADME, cell-free
[5] = Stability in rat plasma; assay type: ADME, cell-free
Adenosine receptor A1 [6] = molecular target: T1, Adenosine receptor A1; assay: Agonist activity at human A1A adenosine receptor expressed in HEK cell membranes incubated for 60 mins by [35S]GTPgammaS binding assay; assay type: functional
Cytochrome P450 1A2 = Cytochrome P450 1A2 (Homo sapiens, UniProt P05177); assay: Inhibition of human CYP1A2; assay type: ADME
Sequence of Cytochrome P450 1A2 (P05177 whole entry): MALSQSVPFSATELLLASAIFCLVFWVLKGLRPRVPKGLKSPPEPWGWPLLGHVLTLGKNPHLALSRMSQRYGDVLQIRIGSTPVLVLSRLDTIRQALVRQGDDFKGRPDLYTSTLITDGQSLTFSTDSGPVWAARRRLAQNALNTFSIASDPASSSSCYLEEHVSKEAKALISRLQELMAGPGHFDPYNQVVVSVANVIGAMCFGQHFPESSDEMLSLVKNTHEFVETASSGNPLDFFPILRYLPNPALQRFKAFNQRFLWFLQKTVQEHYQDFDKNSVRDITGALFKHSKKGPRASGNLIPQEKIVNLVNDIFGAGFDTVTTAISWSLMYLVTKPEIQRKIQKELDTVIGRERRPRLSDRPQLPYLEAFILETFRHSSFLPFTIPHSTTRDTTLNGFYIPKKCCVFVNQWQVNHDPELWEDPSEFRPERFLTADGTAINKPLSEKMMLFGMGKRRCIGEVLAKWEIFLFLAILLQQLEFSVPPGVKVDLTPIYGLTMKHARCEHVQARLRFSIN

Mus musculus [7] = assay: Induction of hypothermia in C57BL/6J mouse assessed as body temperature at 3 mg/kg, ip measured at 60 mins post dose (reference value: 36.3 +/- 0.8 degC); assay type: functional
[8] = molecular target: T2, Adenosine receptor A3 (Mus musculus) (UniProt Q61618); assay: Agonist activity at mouse A3AR adenosine receptor at 10 uM after 60 mins by [35S]GTPgammaS binding assay relative to (2S,3S,4R,5R)-5-(6-amino-9H-purin-9-yl)-N-ethyl-3,4-dihydroxytetrahydrofuran-2-carboxamide; assay type: functional
T2 sequence (whole entry): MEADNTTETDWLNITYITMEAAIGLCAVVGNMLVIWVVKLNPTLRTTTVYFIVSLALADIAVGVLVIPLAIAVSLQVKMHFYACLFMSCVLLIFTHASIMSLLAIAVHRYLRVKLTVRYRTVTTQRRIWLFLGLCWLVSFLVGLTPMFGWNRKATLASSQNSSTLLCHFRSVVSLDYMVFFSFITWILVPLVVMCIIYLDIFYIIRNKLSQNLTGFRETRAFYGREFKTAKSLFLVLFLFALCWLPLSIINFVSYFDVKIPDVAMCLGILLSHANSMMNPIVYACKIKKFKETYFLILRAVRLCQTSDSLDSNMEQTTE

Adenosine receptor A1 [9] = molecular target: T1, Adenosine receptor A1; assay: Agonist activity at human A1A adenosine receptor expressed in CHOKI cells assessed as induction of beta-arrestin2 recruitment after 60 mins; assay type: cell-based
Cytochrome P450 2C19 = Cytochrome P450 2C19 (Homo sapiens, UniProt P33261); assay: Inhibition of human CYP2C19; assay type: ADME
Sequence of Cytochrome P450 2C19 (P33261 whole entry): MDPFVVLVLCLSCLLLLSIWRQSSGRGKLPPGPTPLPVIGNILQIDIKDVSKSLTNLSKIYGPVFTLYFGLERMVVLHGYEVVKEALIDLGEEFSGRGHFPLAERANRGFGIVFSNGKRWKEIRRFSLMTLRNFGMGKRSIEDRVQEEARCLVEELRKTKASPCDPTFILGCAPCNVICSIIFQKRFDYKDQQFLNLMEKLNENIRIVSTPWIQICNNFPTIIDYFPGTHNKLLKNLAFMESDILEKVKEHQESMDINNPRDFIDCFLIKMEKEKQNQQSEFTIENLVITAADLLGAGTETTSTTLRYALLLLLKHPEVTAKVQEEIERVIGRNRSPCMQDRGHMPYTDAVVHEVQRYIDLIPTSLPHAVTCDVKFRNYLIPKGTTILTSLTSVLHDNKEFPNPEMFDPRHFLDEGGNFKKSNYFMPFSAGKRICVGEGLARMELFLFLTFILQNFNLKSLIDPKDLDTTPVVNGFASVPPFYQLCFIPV

Mus musculus [10] = assay: Induction of hypothermia in A1AR knock out C57BL/6J mouse assessed as effect on body temperature at 3 mg/kg, ip measured at 60 mins post dose; assay type: functional, organism-based
Mus musculus [11] = assay: Induction of hypothermia in A1AR/A3AR knock out C57BL/6J mouse assessed as effect on body temperature at 3 mg/kg, ip measured at 60 mins post dose; assay type: functional, organism-based
[12] = Fraction unbound in mouse plasma at 10 uM; assay type: ADME, cell-free
[13] = Stability in human plasma; assay type: ADME, cell-free
Mus musculus [14] = assay: Induction of hypothermia in C57BL/6J mouse assessed as body temperature at […], icv measured after 10 hrs post dose; assay type: functional, organism-based
[15] = Cmax in Sprague-Dawley rat at 3 mg/kg, po; assay type: ADME, organism-based; design: dose 3 mg/kg, route oral; settings: in vivo
[16] = Oral bioavailability in Sprague-Dawley rat at 1 to 10 mg/kg; assay type: ADME, organism-based; settings: in vivo
[17] = Stability of the compound in simulated intestinal fluid; assay type: ADME; settings: simulated gi fluid
[18] = Stability of the compound in simulated gastric fluid; assay type: ADME; settings: simulated gi fluid
Mus musculus [19] = assay: Induction of hypothermia in C57BL/6J mouse assessed as activity counts at 3 mg/kg, ip measured at 60 mins post dose (reference value: 15.5 +/- 5.5); assay type: functional
[20] = Fraction unbound in rat plasma at 10 uM; assay type: ADME, cell-free
Mus musculus [21] = assay: Induction of hypothermia in A3AR knock out C57BL/6J mouse assessed as effect on body temperature at 3 mg/kg, ip measured at 60 mins post dose; assay type: functional, organism-based
[22] = Fraction unbound in human plasma at 10 uM; assay type: ADME, cell-free
HepG2 = assay: Cytotoxicity against human HepG2 cells; assay type: cell-based

For `OC[C@H]1O[C@@H](n2cnc3c(NC(C4CCC4)C4CCC4)ncnc32)[C@H](O)[C@@H]1O`, the half-life [1] was 0.9 to 1.3 h, the pIC50 (Adenosine receptor A1 [2]) was 9.85 and the pIC50 [3] was under 4.52. For the same compound, the Stability [4] was “Stable”, the Stability [5] was “Stable” and the pEC50 (Adenosine receptor A1 [6]) was 7.55. For the same compound, the “inhibition (INH)” value (Cytochrome P450 1A2) was “Not Active”, the T (Mus musculus [7]) was 33 °C and the Emax [8] was 70%. The pEC50 (Adenosine receptor A1 [9]) was 6.68, the “inhibition (INH)” value (Cytochrome P450 2C19) was “Not Active” and the Activity (Mus musculus [10]) was “inactive”. The Activity (Mus musculus [11]) was “inactive”, the Fu [12] was 20.6% and the Stability [13] was “Stable”. The Activity (Mus musculus [14]) was “Active”, the Cmax [15] was 121 ng/mL and the bioavailability [16] was 31 to 43%. For the same compound, the Stability [17] was “Stable”, the Stability [18] was “Stable” and the Activity (Mus musculus [19]) was 6.6. For the same compound, the Fu [20] was 14.6%, the Activity (Mus musculus [21]) was “Active” and the Fu [22] was 6.05%. For the same compound, the Activity (HepG2) was “Non-Toxic”.
